According to patent US10478419B2, “Use of daphnoretin in prevention of tissue or organ transplant rejection or graft-versus-host-disease” (MacKay Memorial Hospital, priority 2017, dated 2019):

Assays:
[1] = tested on: phosphorylated c-Jun N-terminal kinase (p-JNK); experiment: Immunoblot analysis of phosphorylated JNK in DCs; assay type: cell-based, human; conditions: FIG. 5 panels A and B
Method: (§1) Human peripheral blood mononuclear cells were collected from healthy donors and were isolated using Histopaque (Amersham Pharmacia Biotech, Piscataway, N.J., USA) for density gradient centrifugation. Erythrocytes were lysed by using 0.9% ammonium chloride incubated for 3 min at 37° C. Thereafter, CD14^+ monocytes were purified by gradient magnetic sorting method using miniMACS system with anti-CD14 microbeads (Miltenyi Biotec, Bergisch Bladbach, Germany). After incubation at 37° C. for 2 hr, nonadherent cells were removed and adherent cells were collected. The purity of isolated CD14^+ monocytes was over 90% by using flow cytometric analysis. Immature DCs were generated from CD14^+ monocytes by culture in RPMI 1640 medium supplemented with 10% fetal calf serum, 100 ng/mL GM-CSF (Schering-Plough, Munich, Germany), 50 ng/mL IL-4 (R&D Systems, Minneapolis, Minn., USA), and daphnoretin (0, 1.1, 3.3, 10 or 30 μM) every 3 days for 6 days in a humidified 5% CO2 incubator. To trigger maturation of DCs, immature DCs were incubated with lipopolysaccharide (LPS) (5 ng/mL) (Sigma, St. Louis, Mo., USA) and/or a combination of cytokines including 5 ng/mL TNF-α, 5 ng/mL IL-1β, 15 ng/mL IL-6 (R&D Systems, Minneapolis, Minn., USA), and 1 μg/mL prostaglandin E2 (PGE2) (Sigma-Aldrich, St. Louis, Mo., USA) for 24 hr. […]

[2] = tested on: Ehrlich ascites tumor, cervical cancer and lung adenocarcinoma; conditions: cited from earlier work
[3] = tested on: acute rejection of skin allografts; experiment: Skin allograft transplantation model
Description: Male C57BL/6(H-2^b) and BALB/6(H-2^d) mice aged 6-8 weeks were purchased from Animal Resource Center of National Science Council of Taiwan (Taipei, Taiwan) and maintained in a room with 12 hr light/dark cycles. Standard laboratory chow and water were available ad libitum. […] Briefly, a 2×1 cm full-thickness skin graft was harvested from the donor mouse and sutured to the graft bed of a recipient mouse. The skin graft rejection was defined as necrosis of more than 80% of the epidermal surface. Daphnoretin (0.5 or 1.0 mg/Kg) and rapamycin (3.0 mg/Kg) were administered intraperitoneally daily until rejection was observed. Body weight was recorded and the white blood cell count was estimated by an automatic counter.

[4] = tested on: CD4+CD45RA+ naive T cells; experiment: Allogenic naive T cell proliferation stimulated by matured DCs (BrdU); assay type: cell-based, human; conditions: mature DCs : CD4+CD45RA+ cells 1:10 or 1:30; FIG. 4
Description: Nonadherent cells from culture of isolated mononuclear cells were used to purify naïve T cells. Naïve T cells were enriched with a CD4^+CD45RA^+T cell isolation kit (Miltenyi Biotec) using a MIniMACS system with negative selection technique. Monocyte-derived DCs were harvested and irradiated (3,000 cGy in a single fraction) with 6 MeV X-ray generated by linear accelerator (Clinac® 1800, Varian Associates Inc., CA) at a dose of 4.0 Gy/min. Full electron equilibrium was ensured for each fraction by a parallel plate PR-60C ionization chamber (Capintel Inc., Ramsey, N.J., USA). […] The cells were then collected and the incorporated BrdU was detected using flow cytometry to estimate T cell proliferation.

[5] = tested on: human monocyte-derived dendritic cells (DCs); experiment: Number of viable DCs, trypan blue dye exclusion test; assay type: cell-based; conditions: daphnoretin 1.1, 3.3, 10 or 30 μM, FIG. 3
Method: as §1

[6] = tested on: hepatitis B surface antigen; conditions: human hepatoma Hep3B cells; cited from earlier work
[7] = tested on: human monocyte-derived dendritic cells (DCs); experiment: Flow cytometric analysis of surface markers on monocyte-derived DCs; assay type: cell-based
Method: Human peripheral blood mononuclear cells were collected from healthy donors and were isolated using Histopaque (Amersham Pharmacia Biotech, Piscataway, N.J., USA) for density gradient centrifugation. Erythrocytes were lysed by using 0.9% ammonium chloride incubated for 3 min at 37° C. Thereafter, CD14^+ monocytes were purified by gradient magnetic sorting method using miniMACS system with anti-CD14 microbeads (Miltenyi Biotec, Bergisch Bladbach, Germany). After incubation at 37° C. for 2 hr, nonadherent cells were removed and adherent cells were collected. The purity of isolated CD14^+ monocytes was over 90% by using flow cytometric analysis. Immature DCs were generated from CD14^+ monocytes by culture in RPMI 1640 medium supplemented with 10% fetal calf serum, 100 ng/mL GM-CSF (Schering-Plough, Munich, Germany), 50 ng/mL IL-4 (R&D Systems, Minneapolis, Minn., USA), and daphnoretin (0, 1.1, 3.3, 10 or 30 μM) every 3 days for 6 days in a humidified 5% CO2 incubator. To trigger maturation of DCs, immature DCs were incubated with lipopolysaccharide (LPS) (5 ng/mL) (Sigma, St. Louis, Mo., USA) and/or a combination of cytokines including 5 ng/mL TNF-α, 5 ng/mL IL-1β, 15 ng/mL IL-6 (R&D Systems, Minneapolis, Minn., USA), and 1 μg/mL prostaglandin E2 (PGE2) (Sigma-Aldrich, St. Louis, Mo., USA) for 24 hr. It has been shown that monocyte-conditioned medium containing a combination of pro-inflammatory cytokines (i.e., TNF-α, IL-1, IL-6, and PGE2) or LPS triggers efficient DCs maturation. Daphnoretin was purchased from Sigma (St. Louis, Mo., USA) and dissolved in PBS as a stock solution (0.5 mg/mL). Dual-color immunostain was performed using fluorescein isothiocyanate (FITC)- and phycoerythrin (PE)-conjugated monoclonal antibodies (mAbs). The mouse anti-human mAbs IgG1:FITC/mouse IgG1:PE, and appropriate isotype controls were purchased from Serotec (Oxford, UK) and used for characterization of DCs. The isotype controls used in our study included anti-CD11c and anti-CD14 (for IgG-FITC), anti-CD1a-PE, anti-CD80-PE, anti-CD83-PE, anti-HLA-DR-PE and anti-DC-SIGN-PE. Cells were incubated with saturating concentrations of PE-conjugated mAbs and primary CD11c mAbs followed by IgG-FITC at 4° C. for 30 min. After washing twice with PBS, 1×10^6 cells were applied to a FACS caliber flow cytometer (BD Biosciences, San Jose, Calif., USA). Data were collected and analyzed using CellQuest Software (BD Biosciences, San Jose, Calif., USA).

protein kinase C (PKC) = conditions: human hepatoma Hep3B cells; cited from earlier work
[8] = tested on: human monocyte-derived dendritic cells (DCs); experiment: Morphological observation of monocyte-derived DCs (differentiation); assay type: cell-based
Method: as §1

Compound | level of p-JNK in DCs treated with daphnoretin, effect of added JNK activator ([1]; co-incubated with daphnoretin) | anti-cancer activity [2] | fraction of the survived skin graft ([3]; daphnoretin 1.0 mg/Kg/day intraperitoneally, FIG. 6 panel A) | body weight of the recipient mouse ([3]; daphnoretin dose employed, vs control, FIG. 6 panel B) | white blood cell count of the recipient mouse ([3]; daphnoretin dose employed, vs control, FIG. 6 panel C) | proliferation of DCs stimulated T cells [4] | level of p-JNK in DCs ([1]; DCs treated with daphnoretin) | cell viability (cell numbers of mature and immature DCs) [5] | expression of hepatitis B surface antigen [6] | expression of CD1a ([7]; FIG. 2 panel A) | expression of macrophage marker CD14 ([7]; FIG. 2 panel B) | expression of CD40 ([7]; FIG. 2 panel C) | expression of CD83 ([7]; FIG. 2 panel D) | expression of DC-SIGN ([7]; FIG. 2 panel E) | protein kinase C (PKC) activity and intracellular level (protein kinase C (PKC)) | differentiation process of DCs (morphology, formation of dendrites) ([8]; daphnoretin 1.1, 3.3, 10 or 30 μM, FIG. 1) | morphology of DCs ([8]; treated with daphnoretin and anisomycin, FIG. 5 panel C)
COc1ccc(C[C@H]2NC[C@H](O)[C@H]2OC(C)=O)cc1 [anisomycin, reference compound] | could reverse this decrease |  |  |  |  |  |  |  |  |  |  |  |  |  |  |  | 
COc1cc2cc(Oc3ccc4ccc(=O)oc4c3)c(=O)oc2cc1O [daphnoretin, 7-hydroxy-6-methoxy-3,7′-dicoumaryl ether] |  | possess anti-cancer activity | even higher than that treated of the rapamycin-treated mouse | did not vary significantly | did not vary significantly | suppressed | decrease | reduced the cell numbers of both mature and immature DCs in dose-dependent manner | suppressing the expression of hepatitis B surface antigen | suppressed | unaffected | suppressed | suppressed | suppressed | inactivating protein kinase C (PKC) | suppressed | remained rounded and without the formation of any dendrites
